Results from paper PMC8197275, “Novel Tdp1 Inhibitors Based on Adamantane Connected with Monoterpene Moieties via Heterocyclic Fragments” (Molecules, 2021).
Where two headings read alike, the source gives them in different places.

How the values were obtained:
Tdp1 [1] = biological target: T1, Tdp1 (Homo sapiens, UniProt Q9NUW8); set-up: inferred from the pET 16B vector and Ni-chelating resin purification; made in house; conditions: cited from earlier work
Tdp1 [2] = biological target: T1, Tdp1; test: Tdp1 cleavage activity, fluorophore quencher-coupled DNA-biosensor, real-time; assay type: biochemical; set-up: inferred from the pET 16B vector and Ni-chelating resin purification; made in house; conditions: recombinant Tdp1 1.5 nM, 50 nM biosensor; read-out: IC50 (Tdp1 activity inhibition at 50%)
Method: The recombinant Tdp1 was purified to homogeneity by chromatography on Ni-chelating resin and phosphocellulose P11 as described, using plasmid pET 16B-Tdp1, kindly provided by Dr. K.W. Caldecott (University of Sussex, United Kingdom). Tdp1 activity was detected as described in the work. Briefly, we measured the fluorescence intensity after quencher removal from a fluorophore quencher–coupled DNA oligonucleotide catalyzed by Tdp1. The reaction was carried out at different concentrations of inhibitors. The control samples contained 1% DMSO. The reaction mixtures contained Tdp1 buffer (50 mM Tris-HCl pH 8.0, 50 mM NaCl, and 7 mM β-mercaptoethanol), 50 nM biosensor, and an inhibitor being tested. The reaction was started by the addition of purified Tdp1 (1.5 nM). The biosensor (5′-[FAM] AAC GTC AGGGTC TTC C [BHQ]-3′) was synthesized in the Laboratory of Biomedical Chemistry at the Institute of Chemical Biology and Fundamental Medicine (Novosibirsk, Russia).
The reactions were incubated on a POLARstar OPTIMA fluorimeter (BMG LAB-TECH, GmbH) to measure fluorescence every 55 s (ex. 485 nm/em. 520 nm) during the linear phase (here, data are from minute 0 to minute 8). The values of IC50 were determined using a six-point concentration response curve in a minimum of three independent experiments, and were calculated using MARS Data Analysis 2.0 (BMG LABTECH).

HeLa cells = test: Sensitizing of HeLa cells to topotecan by Tdp1 inhibitors; assay type: cell-based, human; conditions: human, 3 days, 5 µM
Method: (§1) The potential for sensitizing the cancer cell lines to topotecan using the Tdp1 inhibitors was investigated using the MTT assay. Neutralizing the enzymatic activity of Tdp1 by blocking access to its catalytic site using a small molecule should sensitize the cytotoxic potential of topotecan, since the complex of Top1 with DNA cannot be unraveled. […] Nontoxic concentrations of the adamantane derivatives (5 μM) were used for the HeLa cell line; the dose response for topotecan was measured and the corresponding CC50 values were derived, and the results are shown in Figure 4 for 20c and in Table 2 for all the derivatives.
(§2) For HeLa cells, increased cytotoxicity was seen when the adamantanes and topotecan were combined. […] The combination index (CI) for different concentrations of topotecan and 20c at 5 μM was in the range 0.49–0.82, and at 10 μM of 20c, it was 0.23–0.78. This indicates a synergistic effect of topotecan and 20c. The CI values were calculated with the CompuSyn version 1.0 software. For the HCT-116 cells, the synergistic effects of the compounds were different than for the HeLa cells. […] The CI plot at a different fraction affected (Fa) was determined for topotecan (5, 15, 150, 500 and 1500 nM) and 20g (1, 3, 10, 20 μM). The CI values for most of the combinations correspond to a synergistic effect (CI < 1, see Figure S3 in the Supplementary Materials).
(§3) The human cervical cancer HeLa cells were grown in Iscove’s modified Dulbecco’s medium (IMDM) with 40 μg/mL gentamicin, 50 IU/mL penicillin, 50 μg/mL streptomycin (MP Biomedicals), and 10% of fetal bovine serum (Biolot) in a 5% CO2 atmosphere. Human colon adenocarcinoma HCT-116, rectum adenocarcinoma SW837, and human embryo kidney HEK293A cell lines were cultured in DMEM medium (Invitrogen) supplemented with 10% fetal bovine serum (FBS) (Invitrogen), penicillin (100 units/mL), and streptomycin (100 μg/mL), at 37 °C, 5% CO2 in a humid atmosphere. After the formation of a 30–50% monolayer, the tested compounds were added to the medium. The volume of the added reagents was 1/100 of the total volume of the culture medium, and the amount of DMSO was 1% of the final volume. Control cells were grown in the presence of 1% DMSO. The cell culture was monitored for 3 days.
(§4) The cytotoxicity of the compounds to HeLa and HEK293A cell lines was examined using the EZ4U Cell Proliferation and Cytotoxicity Assay (Biomedica, Austria), according to the manufacturer’s protocols.

[3] = Cytotoxicity, EZ4U Cell Proliferation and Cytotoxicity Assay, HeLa; assay type: cell-based; conditions: human, HeLa cells, cervical cancer HeLa
Method: (§5) The cytotoxicity of compounds was investigated using HeLa (cervical cancer), SW837 and HCT-116 (colon cancers) cell lines, and the results are shown in Table 1 and Figure S2 in the Supplementary Materials. […] In general, the HeLa cell line was less sensitive to the inhibitors than the HCT-116 and SW837 cells.
as §3, §4

[4] = Cytotoxicity, MTT test, HCT-116; assay type: cell-based; conditions: human, HCT-116 cells; colorectal HCT-116, 72 h MTT
Method: as §5, §3
(§6) The medium was removed, and the dark blue crystals of formazan were dissolved in 100 μL of isopropanol. The absorbance at 570 nm (peak) and 620 nm (baseline) was determined using a microplate reader Multiscan FC (Thermo Fisher Scientific Corporation). All concentrations were performed in triplicate. The values are given as mean ± standard deviation (S.D.) values, and all measurements were repeated three times.

HCT-116 cells = test: Sensitizing of HCT-116 cells to topotecan by Tdp1 inhibitors; assay type: cell-based, human; conditions: human, 72 h
Method: as §1, §2, §3, §6

[5] = Cytotoxicity, MTT test, SW837; assay type: cell-based; conditions: human, SW837 cells; colorectal SW837, 72 h MTT
Method: as §5, §3, §6

T1 sequence (Q9NUW8 whole entry): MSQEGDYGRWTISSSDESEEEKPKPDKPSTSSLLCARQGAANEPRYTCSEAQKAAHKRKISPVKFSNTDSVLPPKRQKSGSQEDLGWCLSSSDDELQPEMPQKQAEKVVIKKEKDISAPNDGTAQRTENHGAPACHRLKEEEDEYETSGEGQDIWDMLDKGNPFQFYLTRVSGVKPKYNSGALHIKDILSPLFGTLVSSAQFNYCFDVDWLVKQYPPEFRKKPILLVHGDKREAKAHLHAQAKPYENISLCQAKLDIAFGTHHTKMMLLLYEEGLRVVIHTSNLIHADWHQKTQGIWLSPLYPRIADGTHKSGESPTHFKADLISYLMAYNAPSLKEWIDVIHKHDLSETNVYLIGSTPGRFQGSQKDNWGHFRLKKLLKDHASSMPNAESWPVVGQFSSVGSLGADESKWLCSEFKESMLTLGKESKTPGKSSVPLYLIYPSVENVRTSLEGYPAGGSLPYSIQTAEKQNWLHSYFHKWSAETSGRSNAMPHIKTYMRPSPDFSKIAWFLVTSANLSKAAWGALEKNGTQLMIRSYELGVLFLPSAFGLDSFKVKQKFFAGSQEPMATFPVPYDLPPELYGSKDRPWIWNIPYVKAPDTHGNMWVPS

Row | Structure (SMILES) | IC50 (Tdp1 [1]) | IC50 (Tdp1 [2]) | melting point | HeLa CC50 of topotecan with Tdp1 inhibitor (HeLa cells) | CC50 at 3 days [3] | CC50 at 72 h [4] | HCT116 CC50 of topotecan with Tdp1 inhibitor (HCT-116 cells; 45 µM) | CC50 at 72 h [5] | HCT116 CC50 of topotecan with Tdp1 inhibitor (HCT-116 cells; 20 µM) | HCT116 CC50 of topotecan with Tdp1 inhibitor (HCT-116 cells; 15 µM) | HCT116 CC50 of topotecan with Tdp1 inhibitor (HCT-116 cells; 25 µM)
1 | CC(C)=CCCC(C)CC1N2CC3(C)CN1CC(C)(C2)C3=O (stereo not drawn) [compound 3] | ~15 µM | – | – | – | – | – | – | – | – | – | –
2 | CC(C)CCCC(C)CC(=O)NC12CC3CC(CC(C3)C1)C2 (stereo not drawn) [26a, N-(Adamantan-1-yl)-3,7-dimethyloctanamide] | – | > 15 µM | 97.9 °C | – | – | – | – | – | – | – | –
3 | CC(C)CCCC(C)CC(=O)Nc1nnc(C23CC4CC(CC(C4)C2)C3)s1 (stereo not drawn) [25a, N-(5-(Adamantan-1-yl)-1,3,4-thiadiazol-2-yl)-3,7-dimethyloctanamide] | – | 0.35 ± 0.05 µM | – | 4.9 µM | > 100 µM | > 100 µM | 455.7 (45) nM | > 100 µM | – | – | –
4 | CC(C)CCCC(C)CCSc1n[nH]c(C23CC4CC(CC(C4)C2)C3)n1 (stereo not drawn) [20a, 5-(Adamantan-1-yl)-3-((3,7-dimethyloctyl)thio)-1H-1,2,4-triazole] | – | 0.54 ± 0.09 µM | – | 4.5 µM | 85 ± 23 µM | 27 ± 6 µM | – | 52 ± 6 µM | 650.0 (20) nM | – | –
5 | CC(C)CCCC(C)CCNC(=O)C12CC3CC(CC(C3)C1)C2 (stereo not drawn) [28a, reference compound] | – | > 15 µM | – | – | – | – | – | – | – | – | –
6 | CC(C)=CCC/C(C)=C\CSc1n[nH]c(C23CC4CC(CC(C4)C2)C3)n1 [20d, 5-(Adamantan-1-yl)-3-(((Z)-3,7-dimethylocta-2,6-dien-1-yl)thio)-1H-1,2,4-triazole] | – | 5.6 ± 0.6 µM | – | 5.4 µM | 31 ± 11 µM | 20 ± 9 µM | – | 17 ± 5 µM | – | 689.0 (15) nM | –
7 | C=C(C)[C@@H]1CC=C(CSc2n[nH]c(C34CC5CC(CC(C5)C3)C4)n2)CC1 [20e, 5-(Adamantan-1-yl)-3-((((S)-4-(prop-1-en-2-yl)cyclohex-1-en-1-yl)methyl)thio)-1H-1,2,4-triazole] | – | 6.2 ± 2.2 µM | – | – | 24 ± 16 µM | 15 ± 5 µM | – | 40 ± 4 µM | – | 392.0 (15) nM | –
8 | CC1(C)[C@H]2CC=C(CSc3n[nH]c(C45CC6CC(CC(C6)C4)C5)n3)[C@@H]1C2 [20f, 5-(Adamantan-1-yl)-3-((((1R,5S)-6,6-dimethylbicyclo[3.1.1]hept-2-en-2-yl)methyl)thio)-1H-1,2,4-triazole] | – | 7.5 ± 1.8 µM | – | 2.8 µM | 15 ± 2 µM | 54 ± 5 µM | – | 46 ± 6 µM | – | – | 715.0 (25) nM
9 | CC1(C)[C@H]2CC=C(C(=O)Nc3nnc(C45CC6CC(CC(C6)C4)C5)s3)[C@@H]1C2 [25c, (1R,5S)-N-(5-(Adamantan-1-yl)-1,3,4-thiadiazol-2-yl)-6,6-dimethylbicyclo[3.1.1]hept-2-ene-2-carboxamide] | – | 0.45 ± 0.09 µM | – | 3.6 µM | > 100 µM | > 100 µM | – | > 100 µM | – | – | 486.0 (25) nM
